ChEMBL document CHEMBL5550110, “An insight into the mechanistic role of (-)-Ampelopsin F from Vatica chinensis L. in inducing insulin secretion in pancreatic beta cells” (Bioorg Med Chem, 2024)
Calls of active or inactive are those of the source. The rule behind the calls is not given here.

Tests used:
[1] = Induction of GLUT2 expression in mouse Beta-TC6 cells assessed as fold increase at 50 uM incubated for 24 hrs by Western blotting analysis relative to control; assay type: functional
[2] = system: Beta-TC6; assay: Induction of calcium level in mouse Beta-TC6 cells assessed as fold increase at 50 uM incubated for 30 mins by Fura-2 AM staining based fluorescence microscopy analysis relative to control; assay type: functional; settings: 0.5 h
[3] = system: Beta-TC6; assay: Cytotoxicity against mouse Beta-TC6 cells assessed as reduction in cell viability at 50 uM incubated for 24 hrs by MTT assay; assay type: toxicity, cell-based; settings: beta-tc6, 24 h
[4] = molecular target: Dipeptidyl peptidase 4 (Mus musculus) (UniProt P28843); assay: Inhibition of DPP4 in mouse Beta-TC6 cells assessed as reduction in AMC production at 50 uM measured every min by fluorescence plate reader assay relative to positive control; assay type: cell-based
Dipeptidyl peptidase 4 (Mus musculus), sequence (P28843 whole entry, looked up): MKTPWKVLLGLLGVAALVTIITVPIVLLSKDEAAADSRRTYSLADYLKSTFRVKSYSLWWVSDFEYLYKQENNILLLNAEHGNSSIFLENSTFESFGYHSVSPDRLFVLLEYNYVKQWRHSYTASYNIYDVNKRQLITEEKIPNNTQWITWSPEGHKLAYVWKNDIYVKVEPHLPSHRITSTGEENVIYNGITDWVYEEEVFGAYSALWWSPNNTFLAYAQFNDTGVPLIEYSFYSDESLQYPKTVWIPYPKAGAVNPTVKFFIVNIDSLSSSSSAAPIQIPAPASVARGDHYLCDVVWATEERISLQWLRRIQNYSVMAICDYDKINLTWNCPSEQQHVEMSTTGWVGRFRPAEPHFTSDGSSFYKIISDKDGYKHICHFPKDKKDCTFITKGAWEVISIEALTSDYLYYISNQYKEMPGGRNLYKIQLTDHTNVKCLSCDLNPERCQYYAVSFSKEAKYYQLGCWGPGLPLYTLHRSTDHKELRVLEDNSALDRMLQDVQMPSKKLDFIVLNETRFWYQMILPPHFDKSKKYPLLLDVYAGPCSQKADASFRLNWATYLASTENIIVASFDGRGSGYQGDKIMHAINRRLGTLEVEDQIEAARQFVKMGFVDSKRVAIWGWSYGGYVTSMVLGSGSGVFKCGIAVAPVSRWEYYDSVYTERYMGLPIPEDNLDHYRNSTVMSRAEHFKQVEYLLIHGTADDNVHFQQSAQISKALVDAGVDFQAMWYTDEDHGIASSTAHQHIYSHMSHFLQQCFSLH

[5] = system: Beta-TC6; assay: Induction of insulin secretion in mouse Beta-TC6 cells assessed as fold increase at 50 uM incubated for 24 hrs by ELISA relative to control; assay type: functional
[6] = Induction of glucokinase expression in mouse Beta-TC6 cells assessed as fold increase at 50 uM incubated for 24 hrs by Western blotting analysis relative to control; assay type: functional
[7] = system: Beta-TC6; assay: Induction of mitochondrial membrane hyperpolarization in mouse Beta-TC6 cells at 50 uM after 24 hrs by JC-1 staining based fluorescence microscopy analysis; assay type: cell-based
[8] = molecular target: Dipeptidyl peptidase 4 (Mus musculus) (UniProt P28843); assay: Inhibition of DPP4 in mouse Beta-TC6 cells assessed as reduction in AMC production at 50 uM measured every min by fluorescence plate reader assay relative to control; assay type: cell-based
[9] = system: Beta-TC6; assay: Induction of mitochondrial membrane hyperpolarization in mouse Beta-TC6 cells at 0.9 uM after 24 hrs by JC-1 staining based fluorescence microscopy analysis; assay type: cell-based
[10] = Induction of glucokinase expression in mouse Beta-TC6 cells assessed as fold increase at 0.1 uM incubated for 24 hrs by Western blotting analysis relative to control; assay type: functional
[11] = system: Beta-TC6; assay: Induction of calcium level in mouse Beta-TC6 cells assessed as fold increase at 0.1 uM incubated for 30 mins by Fura-2 AM staining based fluorescence microscopy analysis relative to control; assay type: functional; settings: 0.5 h
[12] = system: Beta-TC6; assay: Induction of insulin secretion in mouse Beta-TC6 cells assessed as fold increase at 0.1 uM incubated for 24 hrs by ELISA relative to control; assay type: functional
[13] = system: Beta-TC6; assay: Induction of mitochondrial membrane hyperpolarization in mouse Beta-TC6 cells at 0.1 uM after 24 hrs by JC-1 staining based fluorescence microscopy analysis; assay type: cell-based

SMILES: Oc1ccc([C@@H]2c3c(O)cc(O)cc3[C@H]3c4c(O)cc(O)cc4[C@H]2[C@@H]3c2ccc(O)cc2)cc1
- fold change (FC) [1]: 1.5
- fold change (FC) [2]: 2
- Activity [3]: < 15%
- inhibition [4]: 85%
- fold change (FC) [5]: 3.5
- fold change (FC) [6]: 2.5
- Activity [7]: Active
- inhibition [8]: 63%

SMILES: CC(C)[C@@H]1NC(=O)[C@H](C)OC(=O)[C@@H](C(C)C)NC(=O)[C@@H](C(C)C)OC(=O)[C@H](C(C)C)NC(=O)[C@H](C)OC(=O)[C@@H](C(C)C)NC(=O)[C@@H](C(C)C)OC(=O)[C@H](C(C)C)NC(=O)[C@H](C)OC(=O)[C@@H](C(C)C)NC(=O)[C@@H](C(C)C)OC1=O
- Activity [9]: inactive

SMILES: COc1ccc(Cl)cc1C(=O)NCCc1ccc(S(=O)(=O)NC(=O)NC2CCCCC2)cc1 [GLYBURIDE]
- fold change (FC) [10]: 2
- fold change (FC) [11]: 2
- fold change (FC) [12]: 4
- Activity [13]: Active
